Measurements taken from US10196401B2, “Spiro-lactam NMDA receptor modulators and uses thereof” (Aptinyx Inc., priority 2016, dated 2019).

Assays:
NMDAR2A = NMDAR2A (Homo sapiens, UniProt Q12879); test: Potentiation of [3H]MK-801 binding, NMDAR2A; set-up: species or system rat; details: for Conclusion / % 1 mM Glycine: NMDAR2A binding profile; for % 1 mM Glycine: relative to 1 mM glycine; for potentiation of [3H]MK-801 binding, subtype preference in words: NR2A, FIG. 2 / FIG. 6
Description: Assays were conducted as described by Moskal et al., “GLYX-13: a monoclonal antibody-derived peptide that acts as an N-rnethyl-D-aspartate receptor modulator,” Neuropharmacology, 49, 1077-87, 2005. The potentiation of [^3H]MK-801 binding (5 nrM; 22.5 Ci/mmol) to well washed rat cortical membranes (200 μg) was measured under non-equilibrium conditions (15 min @ 25° C.) in the presence of increasing concentrations of Compound A.
Assays were conducted as described above in Example 5, by Moskal et al. (2005).

Plasma stability, rat = format: in vitro ADME
Description: (§1) Microsomal and plasma stability of Compound A was investigated. The following table indicates the percent of Compound A remaining after 60 minutes.
(§2) Microsomal and plasma stability of Compound B was investigated. The following table indicates the percent of Compound B remaining after 60 minutes.

Sprague Dawley rats [1] = test: Bennett model of mechanical analgesia (paw withdrawal threshold); format: in vivo, rat; details: single dose of 10 mg/kg PO; 1 hr, 24 hrs and 1 week post-dosing
Description: Bennett G J, Xie Y K, “A peripheral mononeuropathy in rat that produces disorders of pain sensation like those seen in man,” Pain 33:87-107, 1988. […] Vehicle animals receive the surgery and then receive vehicle rather than test compound. Animals were tested 1 hr, 24 h and 1 wk post-test compound or vehicle administration.
Male 2-3 month old Sprague Dawley rats were used. Harlan was the supplier for all studies. Rats were housed in Lucite cages with aspen wood chip bedding, maintained on a 12:12 light:dark cycle (lights on at 5 AM), and given ad libitum access to Purina lab chow (USA) and tap water throughout the study.
Rats were anesthetized using inhaled isoflurane (2.5%). Spared nerve injury surgery was performed as previously described (Bennett and Xie, 1988). An incision (˜1.5 cm in length) was made with a scalpel blade dorsally through skin on the right hindlimb, parallel and posterior to femur. Using a small pointed hemostat, the biceps femoris and gluteus superficialis muscles were separated. Using curved blunt forceps, the common sciatic nerve was isolated and exposed. For the mechanical analgesia studies, the whole sciatic nerve was ligated. Using hemostats/forceps and chromic gut (5-0), the nerve was loosely ligated with a square knot; 3 ligatures, 1 mm apart were placed on the nerve. […] For the thermal analgesia studies, the common peroneal and tibial branches of the sciatic nerve were ligated and cut, and the sural branch was spared. See Decosterd I, Woolf C J, “Spared nerve injury: an animal model of persistent peripheral neuropathic pain,” Pain 87:149-158, 2000. Testing occurred 1-2 weeks post-surgery.
During testing, rats were acclimated to the surface of a suspended wire mesh grid (1 cm×1 cm, with the wire being 0.3 cm in diameter) for 15-20 min. Starting from the smallest, each Von Frey filament was pressed perpendicularly to the plantar surface of the affected (ipsilateral) hindpaw until slightly bent and then held for 6 second. […]

SD rats = test: Novelty-induced hypophagia (NIH) test; format: in vivo, rat; details: 1 h before a single 10-min test session
Text: This Example relates to the assessment of the anxiolytic effect of treatment in the stress-induced anxiety model, novelty induced hypophagia. This assay is also sensitive to the rapid acting antidepressants ketamine and GLYX-13 (Li et al., “mTOR-dependent synapse formation underlies the rapid antidepressant effects of NMDA antagonists,” Science 329:959-964, 2010; and Burgdorf et al., 2013). See also Bodnoff et al., “A comparison of the effects of diazepam versus several typical and atypical anti-depressant drugs in an animal model of anxiety,” Psychopharmacology, 97:277-279, 1989.
Testing was conducted as described by (Burgdorf et al., 2013). […] Animals were food deprived overnight before testing, and lab chow was placed in the center chamber of an open field (40×40×20 cm) for 10 min under dim red lighting. Between testing each animal, feces and urine were removed from the apparatus. After NIHI testing, the latency to eat in the animal's home cage was determined as a control to ensure the effect on eating is specific to the novel environment. Animals were videotaped, and latency (sec) for the animal to take the first bite of food was manually scored offline.
A single point per dose group that was 2 or more standard deviations from the mean was considered an outlier and was excluded from the data analysis. […]

Sprague Dawley rats [2] = test: Porsolt forced swim test; format: in vivo, rat; details: compared to vehicle group
Description: A non-clinical in vivo pharmacology study (Porsoit assay) was performed to measure antidepressant-like effects. A negative control (0.5% sodium carboxymethyl cellulose in 0.9% sterile saline vehicle) and a positive control (Compound D) were used to compare against Compound A and Compound B. The study allowed for the construction of a dose-response curve of the effects of each compound on the Porsolt forced swim test as assessed by the rats' response (reduced floating time) during a 5-minute swimming test.
Male 2-3 month old Sprague Dawley rats were used (Harlan, Indianapolis, Ind.). Rats were housed in Lucite cages with aspen wood chip bedding, maintained on a 12:12 light:dark cycle (lights on at 5 AM), and given ad libitum access to Purina lab chow (USA) and tap water throughout the study.
The Porsolt forced swim test adapted for use in rats was performed as described by Burgdorf et al., (The long-lasting antidepressant effects of rapastinel (GLYX-13) are associated with a metaplasticity process in the medial prefrontal cortex and hippocampus. Neuroscience 308:202-211, 2015). […] Animals were videotaped, and floating time as defined as the minimal amount of effort required to keep the animals head above water was scored offline by a blinded experimenter with high inter-rater reliability (Pearson's r>0.9). […]

[3] = Microsomal stability, human; format: in vitro ADME
Description: as §1, §2

NMDAR2A, sequence (Q12879 23-1464, species assumed, other chains not shown): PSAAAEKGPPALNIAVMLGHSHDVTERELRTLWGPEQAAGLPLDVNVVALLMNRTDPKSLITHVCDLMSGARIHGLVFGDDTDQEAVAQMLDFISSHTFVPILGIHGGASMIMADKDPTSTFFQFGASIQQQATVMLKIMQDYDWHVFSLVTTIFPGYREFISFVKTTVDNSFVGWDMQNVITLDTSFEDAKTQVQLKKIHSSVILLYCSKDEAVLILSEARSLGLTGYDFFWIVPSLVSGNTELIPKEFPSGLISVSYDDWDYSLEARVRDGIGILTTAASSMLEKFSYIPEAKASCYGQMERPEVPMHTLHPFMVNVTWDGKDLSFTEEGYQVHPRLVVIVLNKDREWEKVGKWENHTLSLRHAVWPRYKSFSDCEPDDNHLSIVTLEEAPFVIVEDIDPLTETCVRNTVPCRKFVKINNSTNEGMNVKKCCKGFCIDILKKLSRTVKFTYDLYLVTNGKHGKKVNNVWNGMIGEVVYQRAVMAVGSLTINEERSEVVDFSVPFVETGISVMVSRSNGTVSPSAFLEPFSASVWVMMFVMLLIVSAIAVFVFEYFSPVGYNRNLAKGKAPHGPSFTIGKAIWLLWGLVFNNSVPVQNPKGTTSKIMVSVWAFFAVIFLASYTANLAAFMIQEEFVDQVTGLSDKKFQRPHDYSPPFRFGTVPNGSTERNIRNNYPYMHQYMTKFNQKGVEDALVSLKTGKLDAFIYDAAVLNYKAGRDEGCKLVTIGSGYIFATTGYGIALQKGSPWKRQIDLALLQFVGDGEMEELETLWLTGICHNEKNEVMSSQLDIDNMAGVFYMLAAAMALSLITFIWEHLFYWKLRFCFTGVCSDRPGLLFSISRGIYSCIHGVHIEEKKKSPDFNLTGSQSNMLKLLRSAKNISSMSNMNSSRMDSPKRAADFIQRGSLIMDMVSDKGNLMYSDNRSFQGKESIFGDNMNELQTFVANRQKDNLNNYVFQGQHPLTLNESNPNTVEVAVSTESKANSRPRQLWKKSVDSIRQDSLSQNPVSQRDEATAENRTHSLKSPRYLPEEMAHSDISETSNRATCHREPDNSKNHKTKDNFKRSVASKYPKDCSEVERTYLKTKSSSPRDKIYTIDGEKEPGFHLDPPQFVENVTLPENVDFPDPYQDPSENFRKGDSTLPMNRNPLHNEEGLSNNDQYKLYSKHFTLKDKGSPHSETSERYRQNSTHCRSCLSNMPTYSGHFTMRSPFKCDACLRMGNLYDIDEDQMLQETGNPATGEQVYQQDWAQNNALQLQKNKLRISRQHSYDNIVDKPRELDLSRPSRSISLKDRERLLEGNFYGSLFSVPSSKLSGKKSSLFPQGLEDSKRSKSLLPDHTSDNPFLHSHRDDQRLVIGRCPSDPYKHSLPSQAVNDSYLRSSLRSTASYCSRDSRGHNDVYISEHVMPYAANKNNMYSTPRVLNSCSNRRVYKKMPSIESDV

Compound | Conclusion (NMDAR2A) | % 1 mM Glycine (NMDAR2A) | potentiation of [3H]MK-801 binding, subtype preference in words (NMDAR2A) | Plasma stability, percent remaining after 60 minutes (Plasma stability, rat) | mechanical analgesic effect in the Bennett model (Sprague Dawley rats [1]) | latency to eat in the NIH test (anxiolytic effect) (SD rats; 10-1000 μg/kg PO) | floating time in the Porsolt test (antidepressant-like effect) (Sprague Dawley rats [2]; 10-1000 μg/kg PO, 1 h post-dosing) | Microsomal stability, percent remaining after 60 minutes [3] | latency to eat in the NIH test (anxiolytic effect) (SD rats; 0.0001-1 μg/kg PO) | floating time in the Porsolt test (antidepressant-like effect) (Sprague Dawley rats [2]; 0.1-10 μi/kg PO, 1 hour post-dosing)
CC(C)CN1CCC[C@]12CN([C@H](C(N)=O)[C@@H](C)O)C2=O [Compound A, (2S,3R)-3-hydroxy-2-((R)-5-isobutyl-1-oxo-2,5-diazaspiro[3.4]octan-2-yl)butanamide] | WT2A agonist | 47.42% | highly NR2A preferring | 92% | produced a mechanical analgesic effect | produces an anxiolytic effect | produces an antidepressant-like effect | 86% |  | 
CC(C)CN1CCC[C@@]12CN([C@H](C(N)=O)[C@@H](C)O)C2=O [Compound B, (2S,3R)-3-hydroxy-2-((S)-5-isobutyl-1-oxo-2,5-diazaspiro[3.4]octan-2-yl)butanamide] | WT2A agonist | 24.48% | lower potency in NR2A and NR2C | 89% | produced a mechanical analgesic effect |  |  | 87% | produces an anxiolytic effect | produces an antidepressant-like effect
